Experimental data from ChEMBL document CHEMBL1649074, “Aurora kinase inhibitors based on the imidazo[1,2-a]pyrazine core: fluorine and deuterium incorporation improve oral absorption and exposure” (J Med Chem, 2011).

Tests used:
[1] = Oral bioavailability in cynomolgus monkey at 10 mg/kg; type: ADME, organism-based, Macaca fascicularis; details: in vivo
[2] = Clearance in Beagle dog at 0.3 mg/kg, iv; type: ADME, organism-based, Canis lupus familiaris; parameters: dose 0.3 mg/kg, route intravenous; details: in vivo
[3] = AUC (0 to 24 hrs) in Beagle dog at 0.3 mg/kg, iv; type: ADME, organism-based, Canis lupus familiaris; parameters: time < 24 hr, dose 0.3 mg/kg, route intravenous; details: plasma
[4] = Oral AUC in cynomolgus monkey at 10 mg/kg, po; type: ADME, organism-based, Macaca fascicularis; parameters: dose 10 mg/kg, route oral; details: in vivo
[5] = (§1) AUC (0 to 24 hrs) in Beagle dog at 10 mg/kg, po; type: ADME, organism-based, Canis lupus familiaris, Plasma; parameters: time < 24 hr, dose 10 mg/kg, route oral; details: beagle, plasma
[6] = Oral AUC in Sprague-Dawley rat at 30 mg/kg, po; type: ADME, organism-based; parameters: dose 30 mg/kg, route oral; details: in vivo
[7] = (§2) Oral bioavailability in Beagle dog at 10 mg/kg; type: ADME, organism-based, Canis lupus familiaris; details: beagle, in vivo
[8] = Clearance in cynomolgus monkey at 0.3 mg/kg, iv; type: ADME, organism-based, Macaca fascicularis; parameters: dose 0.3 mg/kg, route intravenous; details: in vivo
[9] = AUC in CD1 mouse at 50 mg/kg, po; type: ADME, organism-based; parameters: dose 50 mg/kg, route oral; details: plasma
[10] = Oral AUC in Beagle dog at 10 mg/kg, po; type: ADME, organism-based, Canis lupus familiaris; parameters: dose 10 mg/kg, route oral; details: in vivo
[11] = AUC (0 to 24 hrs) in cynomolgus monkey at 0.3 mg/kg, iv; type: ADME, organism-based, Macaca fascicularis; parameters: time < 24 hr, dose 0.3 mg/kg, route intravenous; details: plasma
[12] = target: Tyrosine-protein kinase JAK2 (Homo sapiens, UniProt O60674); assay: Inhibition of JAK2
[13] = target: Tyrosine-protein kinase Lck (Homo sapiens, UniProt P06239); assay: Inhibition of LCK
[14] = target: Ribosomal protein S6 kinase alpha-3 (Homo sapiens, UniProt P51812); assay: Inhibition of RSK2
[15] = Clearance in cynomolgus monkey at 1 mg/kg, iv; type: ADME, organism-based, Macaca fascicularis; parameters: dose 1 mg/kg, route intravenous; details: in vivo
[16] = test system: Mus musculus; assay: Inhibition of Aurora B-mediated histone H3 phosphorylation in nude mouse xenografted with human A2780 cells at 100 mg/kg, po administered as single dose measured 2 hrs; type: functional; details: A2780, 2 h
[17] = AUC (0 to 24 hrs) in cynomolgus monkey at 1 mg/kg, iv; type: ADME, organism-based, Macaca fascicularis; parameters: time < 24 hr, dose 1 mg/kg, route intravenous; details: plasma
[18] = test system: Canis familiaris; assay: as §1; type: ADME, organism-based, Canis lupus familiaris, Plasma; parameters: time < 24 hr, dose 10 mg/kg, route oral; details: in vivo, 24 h
[19] = test system: Canis familiaris; assay: AUC (0 to 24 hrs) in Beagle dog at 1 mg/kg, iv; type: ADME, organism-based, Canis lupus familiaris, Plasma; parameters: time < 24 hr, dose 1 mg/kg, route intravenous; details: in vivo
[20] = test system: Canis familiaris; assay: as §2; type: ADME, organism-based, Canis lupus familiaris; details: in vivo
[21] = Clearance in Beagle dog at 1 mg/kg, iv; type: ADME, organism-based, Canis lupus familiaris; parameters: dose 1 mg/kg, route intravenous; details: in vivo

Chain of Ribosomal protein S6 kinase alpha-3 (P51812 whole entry): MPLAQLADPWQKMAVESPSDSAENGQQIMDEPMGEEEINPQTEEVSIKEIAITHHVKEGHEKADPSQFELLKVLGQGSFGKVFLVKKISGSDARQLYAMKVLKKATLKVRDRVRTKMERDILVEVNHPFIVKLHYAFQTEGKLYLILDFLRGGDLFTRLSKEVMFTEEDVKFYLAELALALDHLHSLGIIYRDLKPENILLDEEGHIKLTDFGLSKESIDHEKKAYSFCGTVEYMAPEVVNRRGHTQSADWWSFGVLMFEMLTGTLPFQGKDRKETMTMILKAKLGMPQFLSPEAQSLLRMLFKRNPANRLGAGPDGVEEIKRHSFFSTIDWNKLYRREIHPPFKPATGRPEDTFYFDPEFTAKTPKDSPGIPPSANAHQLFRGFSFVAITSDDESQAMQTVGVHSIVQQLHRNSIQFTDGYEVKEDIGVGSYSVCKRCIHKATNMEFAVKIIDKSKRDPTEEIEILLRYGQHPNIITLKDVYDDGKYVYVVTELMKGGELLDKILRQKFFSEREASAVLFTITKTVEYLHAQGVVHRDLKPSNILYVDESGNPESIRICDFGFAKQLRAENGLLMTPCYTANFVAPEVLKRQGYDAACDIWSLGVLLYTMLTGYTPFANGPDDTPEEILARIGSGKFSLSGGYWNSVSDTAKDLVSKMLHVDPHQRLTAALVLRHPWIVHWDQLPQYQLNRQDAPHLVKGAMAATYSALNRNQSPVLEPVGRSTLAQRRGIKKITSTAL
Chain of Tyrosine-protein kinase JAK2 (O60674 whole entry): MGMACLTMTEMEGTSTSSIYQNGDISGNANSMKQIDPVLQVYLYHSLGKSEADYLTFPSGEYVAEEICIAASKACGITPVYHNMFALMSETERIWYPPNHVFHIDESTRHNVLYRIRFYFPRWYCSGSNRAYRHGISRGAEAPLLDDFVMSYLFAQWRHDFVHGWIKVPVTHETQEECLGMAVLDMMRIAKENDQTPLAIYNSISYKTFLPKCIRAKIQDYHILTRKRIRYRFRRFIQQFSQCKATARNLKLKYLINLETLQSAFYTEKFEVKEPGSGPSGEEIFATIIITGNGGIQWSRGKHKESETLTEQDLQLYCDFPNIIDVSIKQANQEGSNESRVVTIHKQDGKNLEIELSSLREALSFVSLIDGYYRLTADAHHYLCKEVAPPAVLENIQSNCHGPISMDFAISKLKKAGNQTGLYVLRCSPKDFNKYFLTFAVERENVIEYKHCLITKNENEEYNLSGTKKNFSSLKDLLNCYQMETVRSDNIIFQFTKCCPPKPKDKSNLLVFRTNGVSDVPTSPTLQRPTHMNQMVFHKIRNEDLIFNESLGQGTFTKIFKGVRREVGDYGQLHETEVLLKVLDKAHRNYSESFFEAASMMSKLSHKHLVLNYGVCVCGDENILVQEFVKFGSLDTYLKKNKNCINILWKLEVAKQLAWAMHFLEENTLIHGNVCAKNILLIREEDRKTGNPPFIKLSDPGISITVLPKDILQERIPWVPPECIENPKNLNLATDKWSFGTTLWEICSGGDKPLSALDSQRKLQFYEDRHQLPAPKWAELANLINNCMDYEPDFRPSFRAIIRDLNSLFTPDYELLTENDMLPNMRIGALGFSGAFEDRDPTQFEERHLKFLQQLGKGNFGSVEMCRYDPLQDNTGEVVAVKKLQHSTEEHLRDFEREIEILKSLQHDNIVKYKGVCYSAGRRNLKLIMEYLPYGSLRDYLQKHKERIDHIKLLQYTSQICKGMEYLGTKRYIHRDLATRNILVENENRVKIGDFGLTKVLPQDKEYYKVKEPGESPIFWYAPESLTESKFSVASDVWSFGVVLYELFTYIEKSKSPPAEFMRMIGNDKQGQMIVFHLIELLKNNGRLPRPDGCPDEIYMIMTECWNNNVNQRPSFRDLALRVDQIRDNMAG
Chain of Tyrosine-protein kinase Lck (P06239 whole entry): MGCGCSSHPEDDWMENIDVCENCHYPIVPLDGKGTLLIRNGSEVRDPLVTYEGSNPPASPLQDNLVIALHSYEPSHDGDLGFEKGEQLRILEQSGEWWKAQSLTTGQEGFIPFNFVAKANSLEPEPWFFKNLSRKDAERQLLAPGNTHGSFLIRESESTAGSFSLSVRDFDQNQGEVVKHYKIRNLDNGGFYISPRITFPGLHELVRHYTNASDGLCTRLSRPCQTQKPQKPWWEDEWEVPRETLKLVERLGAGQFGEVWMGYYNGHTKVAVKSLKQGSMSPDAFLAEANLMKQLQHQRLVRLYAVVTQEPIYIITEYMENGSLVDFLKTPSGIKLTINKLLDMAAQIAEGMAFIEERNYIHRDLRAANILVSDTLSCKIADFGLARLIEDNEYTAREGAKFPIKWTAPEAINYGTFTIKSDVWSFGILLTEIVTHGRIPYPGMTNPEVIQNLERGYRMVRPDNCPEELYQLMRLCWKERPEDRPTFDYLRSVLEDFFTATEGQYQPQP

Cc1cn2c(-c3cn[nH]c3)cnc2c(Nc2cc(CN3CCC(F)(F)C3)ns2)n1.Cl showed a bioavailability [1] of 2%, a clearance [2] of 31 mL/min/kg and an AUC(0-t) at 24 h [3] of 0.4 µM·h. The AUC [4] was 0.8 µM·h, the AUC(0-t) at 24 h [5] was 2.6 µM·h and the AUC [6] was 6.9 µM·h. For the same compound, the bioavailability [7] was 20%, the clearance [8] was 18 mL/min/kg and the AUC [9] was 9.4 µM·h. It also gave an AUC [10] of 2.6 µM·h and an AUC(0-t) at 24 h [11] of 0.7 µM·h.

For CCN(Cc1cc(Nc2nc(C)cn3c(-c4cn[nH]c4)cnc23)sn1)C(C)(C)CO, the IC50 [12] was over 100 nM, the IC50 [13] was under 1 nM and the IC50 [14] was over 100 nM.

In the case of Cl.[2H]C([2H])(c1cc(Nc2nc(C)cn3c(-c4cn[nH]c4)cnc23)sn1)N1CCC(F)(F)C1, the clearance [15] is reported as 4.2 mL/min/kg, the inhibition in vivo at 100 mg/kg [16] is reported as 83% and the AUC(0-t) at 24 h [17] is reported as 9.5 µM·h. For the same compound, the AUC [18] was 3.1 µM·h, the AUC [19] was 9 µM·h and the F [20] was 33%. It also gave a clearance [21] of 4.5 mL/min/kg.
